# Measured values from article PMC11842024, “Reversible male contraception by targeted inhibition of serine/threonine kinase 33” (Science (New York, N.Y.), 2024).
# Tests used:
# [1] = test system: male mice; assay: Testis size of treated mice; type: in vivo
# [2] = test system: male mice; assay: Histological analysis of testis and epididymis; type: in vivo
# Description: fig. S24. Histological analysis of testis and epididymis segments (caput & corpus) from control and CDD-2807-treated male mice from protocol 1. Bouin’s fixed, 4 µm-cross sections of the testis (A) and horizontal sections of the epididymis (B) were stained with PAS-hematoxylin.
# All 12 stages of spermatogenesis are represented in both control and CDD-2807-treated mice and show normal tissue morphology and acrosome development. Epididymis from the control and CDD-2807-treated mice were similar histologically. Scale bars are 60 µm.
# (1 picture or pasted object on this page, not shown here) […]
# fig. S25. Histological analysis of testis and epididymis segments (caput & corpus) from control and CDD-2807-treated male mice from protocol 2. Bouin’s fixed, 4 µm-cross sections of the testis (A) and longitudinal sections of the epididymis (B) were stained with PAS-hematoxylin. All 12 stages of spermatogenesis are represented in both control and CDD-2807-treated mice, although it was difficult to find all stages in the CDD-2807-treated mice. Epididymis from the control and CDD-2807-treated mice were very different histologically, control mice had normal sperm cells, while CDD-2807 mice had occasional round spermatids present in the epididymis. Scale bars are 60 µm.
# [3] = target: CLK1 (Homo sapiens, UniProt P49759); assay: NanoBRET K192 assay (Promega); type: cell-based; set-up: host or cells: HEK293 (HEK293T cultured); conditions: HEK293 cells
# Sequence of CLK1 (P49759 whole entry, the tested form may be a part): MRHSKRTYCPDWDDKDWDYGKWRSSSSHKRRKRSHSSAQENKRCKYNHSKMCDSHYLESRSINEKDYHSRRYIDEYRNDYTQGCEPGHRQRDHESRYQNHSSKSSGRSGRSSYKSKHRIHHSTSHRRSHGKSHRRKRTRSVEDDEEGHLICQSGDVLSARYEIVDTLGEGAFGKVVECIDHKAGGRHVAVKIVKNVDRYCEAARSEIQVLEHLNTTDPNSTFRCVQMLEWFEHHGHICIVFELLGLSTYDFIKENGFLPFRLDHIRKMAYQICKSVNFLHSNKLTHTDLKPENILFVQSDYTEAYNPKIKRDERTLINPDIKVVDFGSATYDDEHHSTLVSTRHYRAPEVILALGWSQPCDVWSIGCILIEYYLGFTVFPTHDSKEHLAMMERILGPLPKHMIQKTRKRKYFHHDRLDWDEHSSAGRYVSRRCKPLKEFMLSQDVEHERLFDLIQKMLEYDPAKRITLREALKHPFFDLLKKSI
# Experimental: NanoBRET Target Engagement K192 assay. HEK293 cells (ATCC) were cultured in DMEM (Gibco) + 10% FBS (Seradigm) and incubated in a humidified 37°C/5% CO2 incubator. The NanoBRET Target Engagement K192 Kinase Selectivity System (Promega) contains 192 unique transfection-ready NanoLuc/Kinase fusions, pre-diluted in either transfection carrier DNA or relevant cyclin DNA. These NanoLuc/Kinase fusion constructs were transfected into HEK293 cells using Fugene HD (Promega) according to the manufacturer’s protocol. Briefly, 10 µL of a 20 µg/mL DNA solution was added to white, TC-treated 96-well assay plates (Corning), followed by 30 µL of a diluted Fugene HD solution (20 µL Fugene/1 mL Opti-MEM). After transfection complex formation, HEK293 cells were resuspended at 3.3 × 105 c/mL in Opti-MEM + 1% FBS and added at a volume of 60 µL per well, to result in approximately 20000 cells/well. Cells were incubated in a humidified 37°C/5% CO2 incubator for 20 hours. Tracer K-10 (Promega) was prepared at a 100× concentration in DMSO (Sigma) and diluted to a working concentration of 10× in tracer dilution buffer (12.5 mM HEPES, 31.25% PEG400, pH 7.5) (Promega). Test compounds were prepared as concentrated stock solutions in DMSO and diluted in Opti-MEM to prepare 10× working stocks. Cells were equilibrated with test compounds and Tracer K-10 for 2 hours prior to BRET measurements. For target engagement analysis, Tracer K-10 was added to cells at one of 4 […]
# manufacturer’s protocol. To measure BRET, NanoBRET NanoGlo Substrate and Extracellular NanoLuc Inhibitor (Promega) were added according to the manufacturer’s protocol, and filtered luminescence was measured on a GloMax Discover luminometer equipped with 450 nm BP filter (donor) and 600 nm LP filter (acceptor), using 0.5 s integration time. Milli-BRET units are calculated by multiplying the raw BRET units by 1000.
# For Fractional Occupancy determination, the following equation was used:
# % Occupancy = [1-(X-Z)/(Y-Z)]×100
# Where X = BRET in the presence of the test compound and Tracer K10, Y = BRET in the presence of Tracer K10 only, and Z = Full occupancy, or BRET in the absence of the test compound and […]
# Tracer K10. […]
# [4] = test system: male mice; assay: Scanning electron microscopy (SEM) of sperm morphology; type: in vivo; conditions: protocol 2 at 63 days, n = 3
# Description: Fig. 4. CDD-2807 treatment induces a reversible contraceptive effect. […] Fertility was restored to levels equal to those of controls after halting CDD-2807 treatment for 3 weeks in protocol 1; in protocol 2, fertility was restored an average of 53.5 ± 5.1 days after completion of CDD-2807 treatment compared to the controls (3.5 ± 0.2 days). (C) There are no observed morphological differences in testes from control and CDD-2807 treatment in mice from protocol 2 at 63 days; testis size of CDD-2807–treated mice in protocol 2 (87.13 ± 5.87 mg) was not statistically changed versus control males (111.10 ± 6.50 mg). […] (H) For SEM quantification, a minimum of 100 sperm per group were counted and determined to be either normal or abnormal (having head or tail defects). Counts were totaled and then turned into a percentage of normal versus abnormal sperm per group. By SEM analysis, 94.7 ± 2.7% of the sperm in the CDD-2807–treated mice (n = 3) in protocol 2 had morphologic defects at 63 days, including head and tail defects as shown, compared to only 10.9 ± 2.7% abnormal sperm for the controls (n = 3). Scale bars: 0.5 cm (C), […] (H). **P < 0.01, ***P < 0.001, ****P < 0.0001.
# [5] = test system: male mice; assay: Computer assisted sperm analysis (CASA) of cauda epididymis sperm; type: in vivo
# Description: To further understand the cause of the contraceptive effect of CDD-2807, we analyzed sperm from the cauda epididymis of each mouse using computer assisted sperm analysis (CASA). Although sperm counts were lower in the controls in protocol 1 mice versus CDD-2807–treated mice (fig. S23C), sperm motility (fig. S23D), progressive sperm (fig. S23E), and hyperactivated sperm (fig. S23F) were reduced in the CDD-2807–treated mice. In protocol 2, sperm counts (Fig. 4D), sperm motility (Fig. 4E), progressive sperm (Fig. 4F), and hyperactivated sperm (Fig. 4G) were reduced in the CDD-2807-treated mice versus control mice. […] Thus, low dose (CDD-2807 at 15 mg kg^−1 twice per day for 45 days) or reduced duration (CDD-2807 at 50 mg kg^−1 day^−1 for 7 days) appears to cause a functional defect in motility, whereas high dose (CDD-2807 at 50 mg kg^−1 day^−1 for 63 days) causes both functional and morphologic defects, consistent with the Stk33 knockout and likely a direct role of STK33 in phosphorylation of fibrous sheath proteins A-kinase anchoring protein 3 (AKAP3) and AKAP4 and/or other STK33 targets ([48]).
# [6] = 50 mg/kg/day for 7 days (Protocol 3)
# [7] = protocol 2 at 63 days, vs control
structure (smiles),measurement,setting,value
O=C(c1ccc2[nH]nc(C#Cc3ccccc3-c3ccccc3)c2c1)N1CC2(CCCNC2)C1 [CDD-2807],testis size,[1]; [6],did not alter
same,testis size,[1]; protocol 1 at day 45,normal
same,testis size,[1]; protocol 2 at 63 days,87.13 ± 5.87 mg
same,histology of testes and epididymis,[2]; protocol 1,no detectable defects
same,histology of epididymis,[2]; protocol 2,round spermatids in the epididymis
same,receptor occupancy at 1 µM,"[3]; HEK293, at 1 µM",83.5 ± 0.1%
same,NanoBRET K192 assay % Occupancy CLK1,[3]; at 1 µM,> 80%
same,sperm with morphologic defects (abnormal sperm) by SEM,[4],94.7 ± 2.7%
same,progressive sperm,[5]; [6],statistically significant reductions
same,sperm counts,[5]; [6],did not alter
same,sperm hyperactivation,[5]; [6],statistically significant reductions
same,sperm motility,[5]; [6],statistically significant reductions
same,hyperactivated sperm,"[5]; protocol 1, day 45, vs control",reduced
same,progressive sperm,"[5]; protocol 1, day 45, vs control",reduced
same,sperm motility,"[5]; protocol 1, day 45, vs control",reduced
same,hyperactivated sperm,[5]; [7],significant decrease
same,progressive sperm,[5]; [7],significant decrease
same,sperm counts,[5]; [7],significant decrease
same,sperm motility,[5]; [7],significant decrease
